# In patent publication US20080076824A1, “Compounds That Inhibit Replication Of Human Immunodeficiency Virus” (priority 2004, published 2008):
# Several values for one entry are separate records, joined by “and”; a condition that tells them apart may be missing. Equal entries are not always repeated. Structures can show the parent of a compound that is named as a salt.
# Experiment: Microdose study of 14C-AlphaHGA in healthy volunteers, urine pharmacokinetics (AMS)
# Type: in vivo, human
# Details: for cumulative recovery of the dose in the urine over 24 hr: range; for AUCTmax / AUClast / Dlast / Dmax / Tmax / Tfirst / Tlast: urine
# Protocol: In this example, the pharmacokinetics (PK) and oral bioavailability of AlphaHGA in adult healthy volunteers following a single ‘microdose’ in a sequence-randomized, cross-over study design (two periods 7 days apart) was determined. Clinical experiments were conducted with low-level radiolabelled (^14C) AlphaHGA administered intravenously (IV) orally (PO) with serial blood and urine samples were collected for concentration analysis utilizing accelerator mass spectrometry (AMS).
# Accordingly, eight subjects were enrolled into a single dose cross-over study. The subjects were randomly assigned to one of two administration sequences. Subjects that were assigned to sequence 1 received AlphaHGA as an oral preparation first (Period 1) followed by the intravenous (IV) preparation 1 week later (Period 2). Subjects assigned to sequence 2 received AlphaHGA as an intravenous preparation first followed by the oral preparation 1 week later. Four subjects were assigned to sequence 1 and four subjects were assigned to sequence 2.
# For both oral and IV doses subjects were administered 100 nCi (3.7 Kbq) of alphaHGA, which was determined to contain 1.602888×10ˆ6 fmol of ^14C. The specific activity of each dose was 46.619 MBq/mol (or 1.260 mCi/mol). A stock blend of ^14C-labelled alphaHGA was produced prior to the first study period. The actual formulations used for dosing were prepared on the morning prior to each study period. The infusion was a single bolus injection with both the infusion and flush were completed in less than 30 seconds.
# Urine samples were collected at pre-dose and during post-dose time intervals: 0 to 4, 4 to 8, 8 to 12, 12 to 16, and 16 to 24 hours. All urine collections were obtained. Cumulative urine voidings for the specified time intervals were collected in standard collection containers without additional modifiers or preservatives
# Plasma specimens (30 μL) were analyzed directly via the combustive procedure without further chemical manipulation. For the purposes of calculating ^14C concentration per volume of plasma, a general carbon content of 45% (dry mass) was applied. The urine was mixed with equal volumes (0.5 mL) of a sucrose carbon diluent solution (200 g/L) and mixed by inversion in a disposable polypropylene centrifuge tube. A 20-μL sample was graphitized for AMS analysis according to standard procedures. The mass fraction of the urine represented in the measured sample was inverted and multipled by the ^14C contents above background derived from the AMS measurement to calculate the ^14C content in the total urine void. A density value of 1 g/mL for urine was assumed to calculate its volume from the recorded masses.
# Area-under-the-plasma-concentration-time curve from time zero to the last quantified concentration (AUClast), was calculated by the linear trapezoidal method from the observed concentrations. Area-under-the concentration-time curve from time zero to infinity (AUCinf) was obtained as the sum of AUClast and the extrapolation term Clast/λz, where Clast denotes the last observed quantifiable concentration. The percentage of AUCinf obtained by extrapolation (AUC % extrap) was calculated as [(AUCinf−AUClast)/AUCinf]*100. It should be noted that the area for the IV plasma data will result in an underestimation of the AUC in the first trapezoid because the concentration at time 0 was set to 0 and there is not reasonable way to impute a value at time 0. Area-under-the-concentration-time curve from time zero to the maximum concentration (AUCTmax) was calculated by the linear trapezoidal method. […]. This approach was necessary given the nature of the parameters requested by the sponsor.
# Values for the following PK parameters were estimated from urine levels of AlphaHGA during the various time intervals. […]
# [1] = route iv, individual subjects 1-8, period 1 or 2, hydrochloride, dosing period 1
# [2] = route iv, individual subjects 1-8, period 1 or 2, hydrochloride, dosing period 2
# [3] = route po, individual subjects 1-8, period 1 or 2, dosing period 1
# [4] = route po, individual subjects 1-8, period 1 or 2, dosing period 2
# [5] = route po, individual subjects 1-8, period 1 or 2, hydrochloride, dosing period 1
# [6] = route po, individual subjects 1-8, period 1 or 2, hydrochloride, dosing period 2
compound,measurement,setting,value
"NC(=O)C(N)O (stereo not drawn) [AlphaHGA, α-Hydroxy-glycinamide hydrochloride]","cumulative recovery of the dose in the urine over 24 hr, mean",IV administration,63.7
same,cumulative recovery of the dose in the urine over 24 hr,IV administration,35-100%
same,cumulative recovery of the dose in the urine over 24 hr,oral administration,34-100%
same,AUCTmax,"Period 1, Max",748180 fmol·h
same,AUClast,"Period 1, Max",2934335 fmol·h
same,Dlast,"Period 1, Max",41355 fmol
same,Dmax,"Period 1, Max",374090 fmol
same,AUCTmax,"Period 1, Mean",654984 fmol·h
same,AUClast,"Period 1, Mean",2575235 fmol·h
same,Dlast,"Period 1, Mean",29774 fmol
same,Dmax,"Period 1, Mean",327492 fmol
same,AUCTmax,"Period 1, Min",459180 fmol·h
same,AUClast,"Period 1, Min",2239453 fmol·h
same,Dlast,"Period 1, Min",19395 fmol
same,Dmax,"Period 1, Min",229590 fmol
same,AUCTmax,"Period 2, Max",1882171 fmol·h
same,AUClast,"Period 2, Max",6993866 fmol·h
same,Dlast,"Period 2, Max",133040 fmol
same,Dmax,"Period 2, Max",941085 fmol
same,AUCTmax,"Period 2, Mean",1437891 fmol·h
same,AUClast,"Period 2, Mean",6007590 fmol·h
same,Dlast,"Period 2, Mean",98450 fmol
same,Dmax,"Period 2, Mean",718945 fmol
same,AUCTmax,"Period 2, Min",1207722 fmol·h
same,AUClast,"Period 2, Min",5220702 fmol·h
same,Dlast,"Period 2, Min",48888 fmol
same,Dmax,"Period 2, Min",603861 fmol
same,AUCTmax,"Route iv, Max",1489152 fmol·h
same,AUClast,"Route iv, Max",6540408 fmol·h
same,Dlast,"Route iv, Max",114767 fmol
same,Dmax,"Route iv, Max",744576 fmol
same,AUCTmax,"Route iv, Mean",964045 fmol·h
same,AUClast,"Route iv, Mean",4155954 fmol·h
same,Dlast,"Route iv, Mean",61864 fmol
same,Dmax,"Route iv, Mean",482022 fmol
same,AUCTmax,"Route iv, Min",459180 fmol·h
same,AUClast,"Route iv, Min",2368127 fmol·h
same,Dlast,"Route iv, Min",19716 fmol
same,Dmax,"Route iv, Min",229590 fmol
same,AUCTmax,"Route po, Max",1882171 fmol·h
same,AUClast,"Route po, Max",6993866 fmol·h
same,Dlast,"Route po, Max",133040 fmol
same,Dmax,"Route po, Max",941085 fmol
same,AUCTmax,"Route po, Mean",1128830 fmol·h
same,AUClast,"Route po, Mean",4426871 fmol·h
same,Dlast,"Route po, Mean",66360 fmol
same,Dmax,"Route po, Mean",564415 fmol
same,AUCTmax,"Route po, Min",710260 fmol·h
same,AUClast,"Route po, Min",2239453 fmol·h
same,Dlast,"Route po, Min",19395 fmol
same,Dmax,"Route po, Min",355130 fmol
same,Tmax,"route iv, individual subjects 1-8, period 1 or 2",4 h
same,Tfirst,"route iv, individual subjects 1-8, period 1 or 2, dosing period 1",4 h
same,Tfirst,"route iv, individual subjects 1-8, period 1 or 2, dosing period 2",4 h
same,AUCTmax,[1],684594 fmol·h and 543376 fmol·h and 639322 fmol·h and 459180 fmol·h
same,AUClast,[1],2934335 fmol·h and 2573446 fmol·h and 2551259 fmol·h and 2368127 fmol·h
same,Dlast,[1],32699 fmol and 40072 fmol and 41355 fmol and 19716 fmol
same,Dmax,[1],342297 fmol and 271688 fmol and 319661 fmol and 229590 fmol
same,Tlast,[1],24 h
same,AUCTmax,[2],1207722 fmol·h and 1479193 fmol·h and 1489152 fmol·h and 1209818 fmol·h
same,AUClast,[2],5505102 fmol·h and 5554250 fmol·h and 6540408 fmol·h and 5220702 fmol·h
same,Dlast,[2],48888 fmol and 88098 fmol and 109317 fmol and 114767 fmol
same,Dmax,[2],603861 fmol and 739597 fmol and 744576 fmol and 604909 fmol
same,Tlast,[2],24 hr (3×) and 16 hr
same,Tmax,"route po, individual subjects 1-8, period 1 or 2",4 h
same,Tfirst,[3],4 h
same,Tlast,[3],24 h
same,Tfirst,[4],4 h
same,Tlast,[4],24 h
same,AUCTmax,[5],727839 fmol·h and 710260 fmol·h and 727119 fmol·h and 748180 fmol·h
same,AUClast,[5],2696170 fmol·h and 2239453 fmol·h and 2618588 fmol·h and 2620500 fmol·h
same,Dlast,[5],22280 fmol and 30936 fmol and 19395 fmol and 31737 fmol
same,Dmax,[5],363920 fmol and 355130 fmol and 363559 fmol and 374090 fmol
same,AUCTmax,[6],1882171 fmol·h and 1326533 fmol·h and 1425912 fmol·h and 1482625 fmol·h
same,AUClast,[6],6993866 fmol·h and 6127092 fmol·h and 6093252 fmol·h and 6026045 fmol·h
same,Dlast,[6],80465 fmol and 133040 fmol and 109798 fmol and 103226 fmol
same,Dmax,[6],941085 fmol and 663266 fmol and 712956 fmol and 741313 fmol
